Measured values from patent US10202580B2, “Adult oligodendrocyte-type 2 astrocyte progenitor cell production method” (Japan Science and Technology Agency, priority 2014, dated 2019).

Test system: proliferating OPC
Experiment: Number of cell divisions per colony in TH- or RA-containing medium, oxygen 1.5% by volume (Example 3)
Type: cell-based, rat
Details: RA 1 ng/mL; 1.5% O2; 12 days
Experimental: In addition, unless specifically indicated otherwise, the proliferating OPC used in the following examples were isolated from the optic nerves of 7-day-old rats (P7) in accordance with the immunopanning method of Barres, et al. (Barres, et al., Cell, 1992, Vol. 70, p. 31-46), and the purity thereof (percentage of proliferating OPC relative to all cells) was 99.9% or more.
Proliferating OPC were cultured in medium to which was added thyroid hormone or medium to which was added retinoic acid in an environment having an oxygen concentration of 1.5% by volume followed by investigating the effect of retinoic acid […] on the proliferating OPC.
Six glass bottom culture dishes having a diameter of 12 mm and-coated with PDL were prepared by seeding with 300 proliferating OPC per culture disk, followed by culturing for 12 days at 37° C. in an environment having an oxygen concentration of 1.5% by volume and carbon dioxide concentration of 5% by volume. […]
Following completion of culturing, the numbers of cells that formed colonies were respectively counted and the number of cell divisions was determined for each colony. […]

For `CC1=C(/C=C/C(C)=C/C=C/C(C)=C/C(=O)O)C(C)(C)CCC1` [RA, all-trans retinoic acid], the “effect on proliferating OPC in a low oxygen environment” value was “able to interrupt proliferation of proliferating OPC and induce differentiation to adult OPC”.
